Assay results: patent US20250376483A1, “PRODRUGS OF PAN-KRAS INHIBITORS” (Mirati Therapeutics, Inc., priority 2022, published 2025)

Experiments:
[1] = Whole Blood Stability Assay (mouse whole blood); format: in vitro ADME; settings: CD-1 mouse blood, EDTA-K2, final conc. 2 μM, 37° C., 0-120 min; for half-life at 2 μM: male, fresh whole blood, read-out: Mouse Whole Blood Stability t1/2
Procedure, shortened: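 Compound at 2 μM final was incubated at 37 °C in fresh EDTA-K2 blood from male CD-1 mice. Samples at 0, 10, 30, 60 and 120 min were protein-precipitated with acetonitrile and analysed by LC-MS/MS. % remaining was derived from analyte/internal-standard peak area ratios.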

[2] = Plasma Stability Assay (human plasma); format: in vitro ADME; settings: both sexes; pooled human plasma, heparin, final conc. 2 μM, 37° C., 0-120 min; read-out: Human Plasma Stability t1/2
Procedure, shortened: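 Compound at 2 μM final in pooled heparinised plasma (3 male, 3 female), incubated at 37° C with sampling at 0, 10, 30, 60 and 120 min. Acetonitrile stop, LC-MS/MS; % remaining from analyte/internal-standard peak area ratio relative to T0.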

SMILES	half-life at 2 μM [1] [min]	half-life at 2 μM [2] [min]	Mouse Whole Blood Stability t1/2 [1] [min]
CCc1c(F)ccc2cc(OC(=O)N3CCCC3)cc(N3CCc4c(nc(OC[C@@]56CCCN5C[C@H](F)C6)nc4N4CCC[C@]5(C4)NC(=O)NC5=O)C3)c12 [Example 43, 4-(4-((R)-2,4-dioxo-1,3,7-triazaspiro[4.5]decan-7-yl)-2-(((2R,7aS)-2-fluorotetrahydro-1H-pyrrolizin-7a(5H)-yl)methoxy)-5,8-dihydropyrido[3,4-d]pyrimidin-7(6H)-yl)-5-ethyl-6-fluoronaphthalen-2-yl pyrrolidine-1-carboxylate]	> 289	> 289	
CCc1c(F)ccc2cc(OC(=O)N3CCC(C)CC3)cc(N3CCc4c(nc(OC[C@@]56CCCN5C[C@H](F)C6)nc4N4CCC[C@]5(C4)NC(=O)NC5=O)C3)c12 [Example 56, 4-(4-((R)-2,4-dioxo-1,3,7-triazaspiro[4.5]decan-7-yl)-2-(((2R,7aS)-2-fluorotetrahydro-1H-pyrrolizin-7a(5H)-yl)methoxy)-5,8-dihydropyrido[3,4-d]pyrimidin-7(6H)-yl)-5-ethyl-6-fluoronaphthalen-2-yl 4-methylpiperidine-1-carboxylate]	> 289	> 289	
CCc1c(F)ccc2cc(OC(=O)C34CC5CC(CC(C5)C3)C4)cc(N3CCc4c(nc(OC[C@@]56CCCN5C[C@H](F)C6)nc4N4CCC[C@]5(C4)NC(=O)NC5=O)C3)c12 [Example 63, 4-(4-((R)-2,4-dioxo-1,3,7-triazaspiro[4.5]decan-7-yl)-2-(((2R,7aS)-2-fluorotetrahydro-1H-pyrrolizin-7a(5H)-yl)methoxy)-5,8-dihydropyrido[3,4-d]pyrimidin-7(6H)-yl)-5-ethyl-6-fluoronaphthalen-2-yl (3r,5r,7r)-adamantane-1-carboxylate]	13	> 289	

Second part, the compound after the results:

half-life at 2 μM [1] [min]	half-life at 2 μM [2] [min]	Mouse Whole Blood Stability t1/2 [1] [min]	SMILES
< 5	146		CCc1c(F)ccc2cc(OC(=O)OC(C)C)cc(-c3ncc4c(N5C[C@@H]6C[C@H](C5)[C@H](O)C6)nc(OC[C@@]56CCCN5C[C@H](F)C6)nc4c3F)c12 [Example 15, 5-ethyl-6-fluoro-4-(8-fluoro-2-(((2R,7aS)-2-fluorotetrahydro-1H-pyrrolizin-7a(5H)-yl)methoxy)-4-((1R,5R,6R)-6-hydroxy-3-azabicyclo[3.2.1]octan-3-yl)pyrido[4,3-d]pyrimidin-7-yl)naphthalen-2-yl isopropyl carbonate]
	79	1	CCc1c(F)ccc2cc(OC(=O)C3CCCC3)cc(N3CCc4c(nc(OC[C@@]56CCCN5C[C@H](F)C6)nc4N4CCC[C@]5(C4)NC(=O)NC5=O)C3)c12 [Example 42, 4-(4-((R)-2,4-dioxo-1,3,7-triazaspiro[4.5]decan-7-yl)-2-(((2R,7aS)-2-fluorotetrahydro-1H-pyrrolizin-7a(5H)-yl)methoxy)-5,8-dihydropyrido[3,4-d]pyrimidin-7(6H)-yl)-5-ethyl-6-fluoronaphthalen-2-yl cyclopentanecarboxylate]
3	> 289		CCc1c(F)ccc2cc(OC(=O)OC(C)(C)C)cc(-c3ncc4c(N5C[C@@H]6C[C@H](C5)[C@H](O)C6)nc(OC[C@@]56CCCN5C[C@H](F)C6)nc4c3F)c12 [Example 19, tert-butyl (5-ethyl-6-fluoro-4-(8-fluoro-2-(((2R,7aS)-2-fluorotetrahydro-1H-pyrrolizin-7a(5H)-yl)methoxy)-4-((1R,5R,6R)-6-hydroxy-3-azabicyclo[3.2.1]octan-3-yl)pyrido[4,3-d]pyrimidin-7-yl)naphthalen-2-yl) carbonate]
